In patent US20230348495A1, “A COMPOUND HAVING INHIBITORY ACTIVITY AGAINST KRAS G12D MUTATION” (TAIHO PHARMACEUTICAL CO., LTD., priority 2019, published 2023):

How the values were obtained:
KRAS G12D = KRAS G12D (Homo sapiens (Human), UniProt P01116, G12D); assay: Inhibitory activity on KRAS G12D nucleotide (GDP-GTP) exchange reaction in vitro (SOS1-dependent, BODIPY FL GDP); format: biochemical; settings: BODIPY FL GDP-bound KRAS G12D, compound 25° C. 1 hour, then SOS1 and GMPPNP 30 minutes
Source text: Test Example 1: Evaluation of inhibitory activity of compounds on KRAS G12D nucleotide (GDP-GTP) exchange reaction in vitro
Recombinant KRAS G12D (conjugated N-terminus His6-tag, TEV protease cleavage site and KRAS G12D residues 1-169 (SEQ ID NO: 1), prepared by the method described as below) and cleaved recombinant SOS1 (residues 564-1049(SEQ ID NO: 2), prepared by the method as below) proteins were expressed in E. coli and purified by affinity chromatography.
To prepare the recombinant KRAS G12D, the codon-optimized DNA sequence for the recombinant KRAS G12D (conjugated N-terminus His6-tag, TEV protease cleavage site and KRAS G12D residues 1-169 (SEQ ID NO: 3))was synthesized by GeneArt Technology (Life Technologies, Carlsbad, CA, US). The construct was subcloned into the expression vector pET28a and transformed into Escherichia coli BL21 (DE3) strains (Novagen, Madison, WI, US).
The transformed strain was cultivated in 2 L Luria Broth medium with 25 μg/mL kanamycin at a temperature of 37° C. to a density of 0.6 (OD600), then induced for expression with […] IPTG and further cultivated for 4 h. The cell pellet was resuspended in ice-cold lysis buffer containing 50 mM Tris-HCl (pH 7.5), 200 mM NaCl, and 100 μM TCEP (tris(2-carboxyethyl)phosphine).
After sonication, the disrupted debris was removed by centrifugation. The supernatant was applied on to Ni-NTA affinity gels, and the recombinant human KRAS (G12D) eluted fraction was collected. The buffer of the collected fraction was exchanged to the buffer containing 50 mM Tris-HCl (pH 7.5), 200 mM NaCl, 10% Glycerol, and 5 mM DTT by PD-10 column (GE-Healthcare, Chicago, IL, US).
To prepare the cleaved recombinant SOS1, the codon optimized DNA sequences for the recombinant SOS1 (residues 564-1049 with a conjugated N-terminus His6-tag and TEV protease cleavage site (SEQ ID NO: 4)) was synthesized by GeneArt Technology (Life Technologies). The construct was subcloned into the expression vector pET28a and transformed into Escherichia coli BL21 (DE3) strains (Novagen, Madison, WI, USA).
The transformed strain was cultivated in 2 L Terrific Broth medium with 25 μg/mL kanamycin at a temperature of 37° C. to a density of 0.8 (OD600), then shifted to a temperature of 16° C., induced for expression with […] IPTG, and further cultivated for 16 h. The cell pellet was resuspended in ice-cold lysis buffer containing 50 mM Tris-HCl (pH 7.5), 200 mM NaCl, and 100 μM TCEP.
After sonication, the disrupted debris was removed by centrifugation. The supernatant was applied on to Ni-NTA affinity gels, and the recombinant human SOS1 eluted fraction was collected. Then, His6-tagged TEV protease was added to the collected fraction, dialyzed with the ice-cold lysis buffer for 16 h at a temperature of 4° C., and applied on to Ni-NTA affinity gels. The flow-through fraction containing the tag-cleavaged recombinant human SOS1 was collected. The buffer of the collected fraction was exchanged to the buffer containing 50 mM Tris-HCl (pH 7.5), 200 mM NaCl, 10% Glycerol, and 5 mM DTT by PD-10 column (GE-Healthcare).
To prepare BODIPY FL (fluorescent dye) GDP-bound KRAS G12D protein, 50 μM KRAS G12D protein was incubated with 0.5 mM BODIPY FL GDP in a loading buffer (20 mM Tris-HCl (pH 7.5), 50 mM NaCl, 1 mM DTT and 2.5 mM EDTA) for 1 hour on ice. After the incubation, MgCl2 was added to a final concentration of 10 mM, followed by incubation at room temperature for 30 minutes.
The mixture was allowed to pass through a NAP-5 column to remove free nucleotides and purified BODIPY FL GDP-bound KRAS G12D protein was used for compound evaluation.
For the measurement of the inhibitory activity of compounds on GDP-GTP exchange rate of recombinant KRAS G12D, BODIPY FL GDP-bound KRAS G12D protein was incubated with various concentrations of compound in a reaction buffer (20 mM Tris-HCl (pH 7.5), 100 mM NaCl, 1 mM MgCl2, 2 mM DTT, 0.1% Tween 20) at 25° C. for 1 hour. […]

[1] = test system: KRAS-G12D mutant cell line (A-427); assay: Growth inhibition activity on KRAS-G12D mutant cell line (A-427), CellTiter-Glo 3D; format: cell-based; settings: Homo sapiens, 72 h, A-427 cells, 3-day culture with compound, read-out: A427 CTX IC50
Method: Test Example 2: A measurement test of growth inhibition activity on KRAS-G12D mutant cell line (A-427) (in vitro) A-427 cells (ATCC, Cat #: HTB-53), which are a KRAS-G12D mutant human lung cancer cell line, were suspended in a 10% fetal bovine serum-containing E-MEM medium (manufactured by Fujifilm Wako Pure Chemical Corporation). The cell suspension was seeded into each well of a 384-well U bottom microplate and cultured in an incubator containing 5% CO2 gas at 37° C. for 1 day.
The compound of the present invention was dissolved in DMSO, and the test compound was diluted with DMSO to give a concentration 500 times the final concentration. The solution of the test compound in DMSO was diluted with the medium used for suspending cells and added to each well of the cell-culture plate to give a DMSO final concentration of 0.2%, followed by culture in an incubator containing 5% CO2 gas at 37° C. for another 3 days. The cell count after a 3-day culture in the presence of the compound was measured using CellTiter-Glo 3D Reagent (manufactured by Promega Corporation).
All wells were added with CellTiter-Glo 3D Reagent and mixed for 10 minutes. 30 minutes after mixing, luminescence was measured by a plate reader. The growth inhibition rate was calculated from the following equation, and the concentration of the test compound at which 50% inhibition was achieved (IC50 (μM)) was determined.
Growth Inhibition Rate(%)=(C−T)/(C)×100
T: the emission intensity in a well into which a test compound was added.
C: the emission intensity in a well into which a test compound was not added.

KRAS G12D, sequence (P01116 other isoform, or with tags, fused parts or gaps G12D (already in the parent)): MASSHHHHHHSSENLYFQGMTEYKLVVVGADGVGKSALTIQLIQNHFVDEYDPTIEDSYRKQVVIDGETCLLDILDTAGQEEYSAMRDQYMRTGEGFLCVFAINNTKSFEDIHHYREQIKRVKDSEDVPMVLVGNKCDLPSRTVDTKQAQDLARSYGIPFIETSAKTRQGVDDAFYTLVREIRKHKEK

SMILES | IC50 (KRAS G12D) | IC50 [1]
CN(C)[C@@H]1CC[C@@H]1COc1nc(N2CC3CCC(C2)N3)c2ccc(-c3cc(O)cc4ccccc34)c(F)c2n1 (relative stereo) [Example 17, 4-(4-(3,8-diazabicyclo[3.2.1]octan-3-yl)-2-((cis-2-(dimethylamino)cyclobutyl)methoxy)-8-fluoroquinazolin-7-yl)naphthalen-2-ol] | 14.6 nM | 1290 nM
CN(C)CC1(COc2nc3c(c(N4CC5CCC(C4)N5)n2)CCN(c2cc(O)cc4cccc(Br)c24)C3)CC1 [Example 1, 4-(4-(3,8-diazabicyclo[3.2.1]octan-3-yl)-2-((1-((dimethylamino)methyl)cyclopropyl)methoxy)-5,8-dihydropyrido[3,4-d]pyrimidin-7(6H)-yl)-5-bromonaphthalen-2-ol] | 0.8 nM | 1170 nM
Oc1cc(N2CCc3c(nc(OCC4(CN5CC[C@@H](F)C5)CC4)nc3N3CC4CCC(C3)N4)C2)c2c(Br)cccc2c1 [Example 2, 4-(4-(3,8-diazabicyclo[3.2.1]octan-3-yl)-2-((1-(((R)-3-fluoropyrrolidin-1-yl)methyl)cyclopropyl)methoxy)-5,8-dihydropyrido[3,4-d]pyrimidin-7(6H)-yl)-5-bromonaphthalen-2-ol] | 1.5 nM | 540 nM
Oc1cc(N2CCc3c(nc(OCC4(CN5CCOCC5)CC4)nc3N3CC4CCC(C3)N4)C2)c2c(Br)cccc2c1 [Example 3, 4-(4-(3,8-diazabicyclo[3.2.1]octan-3-yl)-2-((1-(morpholinomethyl)cyclopropyl)methoxy)-5,8-dihydropyrido[3,4-d]pyrimidin-7 (6H)-yl) -5-bromonaphthalen-2-ol] |  | 590 nM
Cc1cccc2cc(O)cc(N3CCc4c(nc(OCC5(CN(C)C)CC5)nc4N4CC5CCC(C4)N5)C3)c12 [Example 4, 4-(4-(3,8-diazabicyclo[3.2.1]octan-3-yl)-2-((1-((dimethylamino)methyl)cyclopropyl)methoxy)-5,8-dihydropyrido[3,4-d]pyrimidin-7(6H)-yl)-5-methylnaphthalen-2-ol] | 1.5 nM | 1170 nM
Cc1cccc2cc(O)cc(N3CCc4c(nc(OCC5(CN6CC[C@@H](F)C6)CC5)nc4N4CC5CCC(C4)N5)C3)c12 [Example 5, 4-(4-(3,8-diazabicyclo[3.2.1]octan-3-yl)-2-((1-(((R)-3-fluoropyrrolidin-1-yl)methyl)cyclopropyl)methoxy)-5,8-dihydropyrido[3,4-d]pyrimidin-7(6H)-yl)-5-methylnaphthalen-2-ol] | 6.2 nM | 1170 nM
Cc1cccc2cc(O)cc(N3CCc4c(nc(OCC5(CN6CCOCC6)CC5)nc4N4CC5CCC(C4)N5)C3)c12 [Example 6, 4-(4-(3,8-diazabicyclo[3.2.1]octan-3-yl)-2-((1-(morpholinomethyl)cyclopropyl)methoxy)-5,8-dihydropyrido[3,4-d]pyrimidin-7(6H)-yl)-5-methylnaphthalen-2-ol] | 3.2 nM | 550 nM
CN(C)CC1(COc2nc3c(c(N4CC5CCC(C4)N5)n2)CCN(c2cc(O)cc4cccc(I)c24)C3)CC1 [Example 7, 4-(4-(3,8-diazabicyclo[3.2.1]octan-3-yl)-2-((1-((dimethylamino)methyl)cyclopropyl)methoxy)-5,8-dihydropyrido[3,4-d]pyrimidin-7(6H)-yl)-5-iodonaphthalen-2-ol] | 0.7 nM | 580 nM
Oc1cc(N2CCc3c(nc(OCC4(CN5CC[C@@H](F)C5)CC4)nc3N3CC4CCC(C3)N4)C2)c2c(I)cccc2c1 [Example 8, 4-(4-(3,8-diazabicyclo[3.2.1]octan-3-yl)-2-((1-(((R)-3-fluoropyrrolidin-1-yl)methyl)cyclopropyl)methoxy)-5,8-dihydropyrido[3,4-d]pyrimidin-7(6H)-yl)-5-iodonaphthalen-2-ol] | 0.9 nM | 470 nM
Oc1cc(N2CCc3c(nc(OCC4(CN5CCOCC5)CC4)nc3N3CC4CCC(C3)N4)C2)c2c(I)cccc2c1 [Example 9, 4-(4-(3,8-diazabicyclo[3.2.1]octan-3-yl)-2-((1-(morpholinomethyl)cyclopropyl)methoxy)-5,8-dihydropyrido[3,4-d]pyrimidin-7(6H)-yl)-5-iodonaphthalen-2-ol] | 0.7 nM | 350 nM
C#Cc1cccc2cc(O)cc(C(=O)N3Cc4nc(OCC5(CN6CCOCC6)CC5)nc(N5CC6CCC(C5)N6)c4C3)c12 [Example 10, (4-(3,8-diazabicyclo[3.2.1]octan-3-yl)-2-((1-(morpholinomethyl)cyclopropyl)methoxy)-5,7-dihydro-6H-pyrrolo[3,4-d]pyrimidin-6-yl) (8-ethynyl-3-hydroxynaphthalen-1-yl)methanone] | 1.5 nM | 6620 nM
C#Cc1cccc2cc(O)cc(C(=O)N3Cc4nc(OCC5(CN6CC[C@@H](F)C6)CC5)nc(N5CC6CCC(C5)N6)c4C3)c12 [Example 11, (4-(3,8-diazabicyclo[3.2.1]octan-3-yl)-2-((1-(((R)-3-fluoropyrrolidin-1-yl)methyl)cyclopropyl)methoxy)-5,7-dihydro-6H-pyrrolo[3,4-d]pyrimidin-6-yl) (8-ethynyl-3-hydroxynaphthalen-1-yl)methanone] | 1.4 nM | 7850 nM
Ic1cccc2cccc(N3CCc4c(nc(OCC5(CN6CCOCC6)CC5)nc4N4CC5CCC(C4)N5)C3)c12 [Example 25, 4-((1-(((4-(3,8-diazabicyclo[3.2.1]octan-3-yl)-7-(8-iodonaphthalen-1-yl)-5,6,7,8-tetrahydropyrido[3,4-d]pyrimidin-2-yl)oxy)methyl)cyclopropyl)methyl)morpholine] | 39.8 nM | 
CN1CCC[C@@H]1COc1nc2c(c(N3CC4CCC(C3)N4)n1)CCN(c1cc(O)cc3cccc(Br)c13)C2 [Example 26, 4-(4-(3,8-diazabicyclo[3.2.1]octan-3-yl)-2-(((R)-1-methylpyrrolidin-2-yl)methoxy)-5,8-dihydropyrido[3,4-d]pyrimidin-7(6H)-yl)-5-bromonaphthalen-2-ol] | 19.9 nM | 
